Results on 14 compounds are retold here after patent US7750158B2, “Cannabinoid receptor ligands” (Schering Corporation, priority 2004, dated 2010).

pKi: −log10 of the molar value. Like-named read-outs stand apart in the source and are kept apart here.

In test [1] the target is T1, recombinant human cannabinoid CB2 receptor (Homo sapiens, UniProt P34972).
T1 construct: purchased Receptor Biology RB-HCB2
The test is described as follows: [3H] CP-55,940 competition binding to recombinant cannabinoid receptor membranes (CB2). The protocol:
(§1) Potential cannabinoid receptor ligands were screened for the ability to compete with [^3H] CP-55,940, which is a known receptor ligand, for binding to recombinant cannabinoid receptors. Test compounds were serially diluted in Diluent Buffer (50 mM Tris pH 7.1, 1 mM EDTA, 3 mM MgCl2, 0.1% BSA, 10% DMSO, 0.36% methyl cellulose (Sigma M-6385)) from stocks prepared in 100% DMSO. Aliquots (10 μL) were transferred into 96-well microtiter plates. Membrane preparations of recombinant human cannabinoid CB2 receptor (Receptor Biology #RB-HCB2) or recombinant human cannabinoid CB1 receptor (Receptor Biology #RB-HCB1) were diluted to 0.3 mg/mL in Binding Buffer (50 mM Tris pH 7.2, 1 mM EDTA, 3 mM MgCl2, 0.1% BSA). Aliquots (50 μL) were added to each well of the microtiter plate. The binding reactions were initiated by addition of [^3H] CP-55,940 (New England Nuclear #NET 1051; specific activity=180 Ci/mmol) to each well of the microtiter plate. Each 100 μl reaction mixture contained 0.48 nM [^3H] CP-55,940, 15 μg membrane protein in binding buffer containing 1% DMSO and 0.036% methyl cellulose. Following incubation for 2 hours at room temperature, the reactions were filtered through 0.5% polyethylenimine-coated GF/C filter plates (UniFilter-96, Packard) with a TomTec Mark 3U Harvester (Hamden, Conn.). The filter plate was washed 5 times with binding buffer, rotated 180°, then re-washed 5 times with binding buffer. Bound radioactivity was quantitated following addition of 30 μl of Packard Microscint 20 scintillant in a Packard TopCount NXT microplate scintillation counter. Non-linear regression analysis of the resulting data was performed using Prism 2.0b (GraphPad, San Diego, Calif.).
The activities (potencies) for the compounds of the invention are determined by measuring their Ki values.

Test [2] has as its target T2, recombinant human cannabinoid CB1 receptor (Homo sapiens, UniProt P21554).
T2 construct: purchased Receptor Biology RB-HCB1
The test can be described thus: [3H] CP-55,940 competition binding to recombinant cannabinoid receptor membranes (CB1), reported as the CB1/CB2 selection ratio. As to conditions: Ki CB1 / Ki CB2, same binding assay. The protocol: as §1

Where [3] appears, read: 0.48 nM [3H] CP-55,940, 15 μg membrane protein, 2 hours at room temperature, read-out: Ki values (CB2 receptor).

T2 sequence (P21554 whole entry): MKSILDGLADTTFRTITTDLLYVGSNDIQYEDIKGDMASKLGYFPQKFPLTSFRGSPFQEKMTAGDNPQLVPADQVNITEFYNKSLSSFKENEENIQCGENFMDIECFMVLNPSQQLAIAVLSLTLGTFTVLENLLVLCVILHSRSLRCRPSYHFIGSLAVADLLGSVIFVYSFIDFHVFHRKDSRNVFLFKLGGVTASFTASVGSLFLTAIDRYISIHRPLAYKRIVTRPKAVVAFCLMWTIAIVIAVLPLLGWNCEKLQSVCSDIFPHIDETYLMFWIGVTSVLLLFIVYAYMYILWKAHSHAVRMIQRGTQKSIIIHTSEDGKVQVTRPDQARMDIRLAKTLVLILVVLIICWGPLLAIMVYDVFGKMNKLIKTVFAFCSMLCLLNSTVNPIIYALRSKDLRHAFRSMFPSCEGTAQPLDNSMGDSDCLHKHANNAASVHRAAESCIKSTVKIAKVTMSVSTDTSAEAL
T1 sequence (P34972 whole entry): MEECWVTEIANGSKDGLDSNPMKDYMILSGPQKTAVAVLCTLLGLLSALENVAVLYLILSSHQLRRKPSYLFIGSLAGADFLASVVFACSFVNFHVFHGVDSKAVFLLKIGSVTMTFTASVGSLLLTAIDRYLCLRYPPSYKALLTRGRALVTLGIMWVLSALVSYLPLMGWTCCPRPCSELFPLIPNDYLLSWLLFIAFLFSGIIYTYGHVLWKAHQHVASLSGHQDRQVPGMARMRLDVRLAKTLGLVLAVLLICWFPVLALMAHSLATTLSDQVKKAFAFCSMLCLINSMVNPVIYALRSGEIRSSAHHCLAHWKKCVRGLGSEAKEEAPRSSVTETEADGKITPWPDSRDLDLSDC

In general, pKi refers to the Ki on a negative log10 scale, so that one unit is a factor of ten. On to `CS(=O)(=O)NC1CC12CCN(S(=O)(=O)c1cc3ccccc3n1S(=O)(=O)c1ccccc1F)CC2` (racemic) [compound 20], for which the pKi in test [1] (setting [3]) is 9.62. Moreover, the “selection ratio of the Ki value of the CB1 receptor to that of the CB2 receptor” value (shortened to “selection ratio”) in test [2] is recorded as “about 15000”.
As to `O=S(=O)(c1ccccn1)c1cc(Cl)ccc1S(=O)(=O)N1CC2C(CNS(=O)(=O)C(F)(F)F)C2C1` (stereo not shown) [compound 6], the pKi in test [1] (setting [3]) was 8.82. Besides, the “selection ratio” value in test [2] is recorded as roughly 6300.
In the same order, the values of `CS(=O)(=O)NCC1C2CN(S(=O)(=O)c3ccc(Cl)cc3S(=O)(=O)c3ccccc3F)CC12` (stereo not shown) [compound 9] are 9.19 and roughly 2700.
In the same order, the values of `O=S(=O)(c1ccccc1F)c1cc(Cl)ccc1S(=O)(=O)N1CC2C(CNS(=O)(=O)C(F)(F)F)C2C1` (stereo not shown) [compound 11] are 8.84 and “about 1000”.
On to `CS(=O)(=O)NCC1C2CN(S(=O)(=O)c3cc4ccccc4n3S(=O)(=O)c3ccccc3F)CC12` (stereo not shown) [compound 13], for which the negative logarithm of the Ki (pKi) in test [1] (setting [3]) was 9.00. Also, the “selection ratio” value in test [2] is reported as roughly 3400.
For `O=S(=O)(c1cc2ccccc2n1S(=O)(=O)c1ccccc1F)N1CCC2(CC1)C[C@@H]2NS(=O)(=O)C(F)(F)F` [compound 22], in test [1] (setting [3]), the pKi is 9.00. In addition, the “selection ratio” value in test [2] was roughly 400.
In the case of `O=S(=O)(c1ccccn1)c1cc(C(F)(F)F)ccc1S(=O)(=O)N1CCC2(CC1)CC2NS(=O)(=O)C(F)(F)F` (stereo not shown) [compound 31], the pKi in test [1] is 8.30. Moreover, the “selection ratio” value in test [2] was roughly 71.
On to `O=S(=O)(c1cc2ccccc2n1S(=O)(=O)c1ccccn1)N1CCC2(CC1)CC2NS(=O)(=O)C(F)(F)F` (stereo not shown) [compound 41], for which the pKi in test [1] (setting [3]) was 9.40. In addition, in test [2], the “selection ratio” value was roughly 3500.
`CS(=O)(=O)NCC1CC2CCC(C1)N2S(=O)(=O)c1cc2ccccc2n1S(=O)(=O)c1ccccc1F` (stereo not shown) [compound 47]: the negative-log Ki (pKi) in test [1] is 8.15. Besides, the “selection ratio” value in test [2] is reported as roughly 790.
`CCC1(CNCC(F)(F)F)CC2CCC(C1)N2S(=O)(=O)c1ccc(Cl)cc1S(=O)(=O)c1ccccn1` (stereo not shown) [compound 58]: in test [1], the negative logarithm of the Ki (pKi) is 7.39. For the same compound, in test [2], the “selection ratio” value was roughly 770.
As to `CCC1(CNS(=O)(=O)C(F)(F)F)CC2CCC(C1)N2S(=O)(=O)c1ccc(Cl)cc1S(=O)(=O)c1ccccn1` (stereo not shown) [compound 59], the negative logarithm of the Ki (pKi) in test [1] was 7.59. In addition, in test [2], the “selection ratio” value is given as roughly 52.
With `O=S(=O)(c1cc2cccnc2n1S(=O)(=O)c1ccccc1F)N1CC2C(CNS(=O)(=O)C(F)(F)F)C2C1` (stereo not shown) [compound 60], in test [1] (setting [3]), the pKi is 8.48. In test [2], the “selection ratio” value is recorded as roughly 4100.
For `Cn1c(S(=O)(=O)N2CCC3(CC2)CC3NS(=O)(=O)C(F)(F)F)c(S(=O)(=O)c2ccccc2F)c2ccccc21` (stereo not shown) [compound 61], the pKi in test [1] is 8.41. For the same compound, in test [2], the “selection ratio” value is reported as roughly 1200.
With `CC(C)n1c(S(=O)(=O)N2CC3C(CNC(=O)OC(C)(C)C)C3C2)c(S(=O)(=O)c2ccccc2F)c2ccccc21` (stereo not shown) [compound 62], in test [1], the negative-log Ki (pKi) is 7.55. Also, the “selection ratio” value in test [2] is reported as roughly 1.9.
